Test results published in patent publication US11878009B2, “Anticancer combination of chidamide and celecoxib salts” (Great Novel Therapeutics Biotech & Medicals Corporation, priority 2019, dated 2024).

What was measured:
[1] = low solubility and high permeability; cited from earlier work
[2] = Saturation solubility in ddH2O; format: physicochemical; settings: for Saturation & Solubility: ddH2O, 25° C., 100 rpm, 90 minutes, triplicates, mean ± SD; for water solubility (in words): saturation solubility study
Method: Determination of Saturation Solubility of Chidamide-HCl, Chidamide-H2SO4, and Celecoxib-Na Salts. Sample of 5 mg of chidamide-HCl, chidamide-H2SO4, or celecoxib-Na salts was added to 5 ml volumetric flasks containing ddH2O and shook at 100 rpm in an incubator at 25° C. for 90 minutes. The resulting suspension was filtered through a 0.22 μm filter. The concentrations of chidamide-HCl, chidamide-H2SO4, and celecoxib-Na salts were determined spectrophotometrically at 256 nm, 256 nm, and 253 nm, respectively. The saturation solubility of each sample was determined in triplicates and the mean value and standard deviation were reported. Preparation of standard curves is described as below.

Row | Saturation & Solubility [2] | water solubility (in words) [2] | Structure (SMILES) | BCS class [1]
1 | BDL | water-insoluble | Cc1ccc(-c2cc(C(F)(F)F)nn2-c2ccc(S(N)(=O)=O)cc2)cc1 [Celecoxib-API, 4-[5-(4-Methylphenyl)-3-(trifluoromethyl)pyrazol-1-yl]benzenesulfonamide, reference compound] | class II
2 | BDL | water-insoluble | Nc1cc(F)ccc1NC(=O)c1ccc(CNC(=O)/C=C/c2cccnc2)cc1 [Chidamide-API, 4-(((E)-3-(pyridin-3-yl)acrylamido)methyl)-N-(2-amino-4-fluorophenyl)benzamide, reference compound] | 
